What all share (type): functional, cell-based
In assay [1] the test system is HepG2. Description: Cytotoxicity against human HepG2 cells incubated for 48 hrs by SRB assay. The following applies: HepG2, 48 h.
The next assay has as its system IMR-32. The experiment in a line: Cytotoxicity against human IMR-32 cells incubated for 48 hrs by SRB assay. The following applies: IMR-32, 48 h. For orientation: Sulforhodamine B stains cellular protein and so reports cell mass.
The next assay has as its system HeLa. Description: Cytotoxicity against human HeLa cells incubated for 48 hrs by SRB assay.
The next assay has as its system LNCaP. The experiment in a line: Cytotoxicity against human LNCAP cells incubated for 48 hrs clonogenic survival assay. Particulars: 48 h.
The subject of another assay is Jurkat. Description: Cytotoxicity against human Jurkat cells incubated for 72 hrs by MTT assay.
A further assay has as its system CCRF-CEM. The experiment in a line: Cytotoxicity against human CEM cells incubated for 72 hrs by MTT assay.
The next assay deals with HL-60. Description: Cytotoxicity against human HL-60 cells incubated for 72 hrs by MTT assay. The following applies: HL-60, 72 h. (Formazan colour is commonly taken as a measure of viable cells.)
A further assay relates to SK-OV-3. Description: Cytotoxicity against human SK-OV-3 cells by SRB staining assay.
Another assay concerns SK-MEL-2. The experiment in a line: Cytotoxicity against human SK-MEL-2 cells by SRB staining assay.
For another assay, the system named is A549. Description: Cytotoxicity against human A549 cells by SRB staining assay.
For a further assay, the system named is XF498. Description: Cytotoxicity against human XF498 cells by SRB staining assay.
A further assay relates to HCT-15. Description: Cytotoxicity against human HCT-15 cells by SRB staining assay.
Assay [2] relates to MCF7. The experiment in a line: Antiproliferative activity against human MCF7 cells by tetrazolium-based semiautomated colorimetric assay.
In another assay the test system is HCT-116. The experiment in a line: Cytotoxicity against human HCT-116 cells by MTT assay.
The subject of assay [3] is HepG2. The experiment in a line: Cytotoxicity against human HepG2 cells by MTT assay.
A further assay relates to BGC-823. Description: Cytotoxicity against human BGC-823 cells by MTT assay.
Another assay relates to P388. The experiment in a line: Antiproliferative activity against mouse P388 cells.
Assay [4] has as its system MCF7. Description: Cytotoxicity against human MCF7 cells incubated for 48 hrs by sulforhodamine B staining based spectrophotometric assay. The following applies: MCF7, 48 h.
The subject of the next assay is UACC-62. The experiment in a line: Cytotoxicity against human UACC-62 cells incubated for 48 hrs by sulforhodamine B staining based spectrophotometric assay. The following applies: UACC-62, 48 h.
Another assay concerns MDA-MB-435. The experiment in a line: Antiproliferative activity against human MDA-MB-435 cells incubated for 48 hrs by [3H]-thymidine incorporation assay. For orientation: Incorporation of labelled thymidine or its analogues reports DNA synthesis.
Assay [5] deals with MCF7. Description: Antiproliferative activity against human MCF7 cells incubated for 48 hrs by [3H]-thymidine incorporation assay.
For a further assay, the system named is SW480. Description: Antiproliferative activity against human SW480 cells incubated for 72 hrs by MTT assay. The following applies: SW480, 72 h.
A further assay concerns PANC-1. Description: Cytotoxicity against human Panc-1 cells incubated for 48 hrs by CCK8 assay. The following applies: PANC-1, 48 h.

For the molecule `C=C1[C@@H]2CC[C@@]3(C)[C@H](c4ccoc4)OC(=O)C[C@]13O[C@H]1C[C@H](OC(C)=O)C(C)(C)[C@H](CC(=O)OC)[C@]12C`, the half-inhibitory concentration (IC50) with HepG2 [1] is above 100000 nM; in the assay with IMR-32, 22 nM; in the assay with HeLa, 61000 nM.

In the assay on LNCaP, `C/C=C(/C)C(=O)O[C@H]1C(C)=C2[C@H]([C@@H]1OC(=O)CCCCCCC)[C@@](C)(OC(C)=O)C[C@H](OC(=O)CCCCCCCCCCCNC(=O)[C@@H](N)CC(C)C)[C@@]1(O)[C@H]2OC(=O)[C@@]1(C)O` had an IC50 of 14 nM.

Take `CC(=O)O[C@@]1(C)COC2(C1)OC(=O)[C@H]([C@@H]1CC[C@]34C[C@]13C=C[C@@H]1[C@@]3(C)CC=C5C[C@@H](Cc6ccccc6)OC[C@]5(C)[C@@H]3C[C@@H](O)[C@]14C)[C@H]2O` (stereo partly specified): the IC50 with Jurkat stood at 2700 nM; with CCRF-CEM it was 24000 nM; in the assay with HL-60, 30000 nM.

For the molecule `CC(O)CC(=O)O[C@@]1(C)CO[C@@]2(C1)OC(=O)[C@H]([C@@H]1CC[C@]34C[C@]13C=C[C@@H]1[C@@]3(C)CC=C5C[C@@H](Cc6ccccc6)OC[C@]5(C)[C@@H]3C[C@@H](O)[C@]14C)[C@H]2O` (stereo partly specified), the 50% inhibitory concentration (IC50) was determined as 1800 nM with Jurkat, 3100 nM in the assay with CCRF-CEM and 5600 nM in the assay on HL-60.

As for `CC(=O)O[C@@H]1C[C@H](O)[C@@]23COC(O)[C@]1(C)[C@@H]2C[C@@H](O)[C@@]1(C)[C@@H]2C(=O)C[C@@H](c4ccoc4)[C@]2(C)[C@@H](O)C(=O)[C@@H]13` (stereo partly specified), the IC50 in the assay on SK-OV-3 turned out to be 26000 nM; in the assay with SK-MEL-2, 710 nM; with A549, 1700 nM; in the assay with XF498 it was 3800 nM; in the assay with HCT-15, 3000 nM.

As to `C[C@H]1[C@@H](CCC(=O)NCC[C@H]2O[C@@H]3O[C@]4(C)CC[C@H]5[C@H](C)CC[C@@H]([C@H]2C)[C@@]35OO4)O[C@@H]2O[C@@]3(C)CC[C@H]4[C@H](C)CC[C@@H]1[C@@]24OO3`, it took 8 nM to reach half-maximal inhibition in the assay on MCF7 [2] (IC50).

As for `CC(C)(O)[C@]12O[C@H]1[C@@H]1O[C@]13[C@]1(O[C@H]1C[C@H]1C4=C(CC[C@@]13C)C(=O)OC4)[C@@H]2O`, the 50% inhibitory concentration (IC50) in the assay on HCT-116 was determined as 390 nM; with HepG2 [3], 770 nM; with BGC-823 it was 200 nM.

As for `CC(=O)O[C@@H]1C[C@H](O)[C@@]23COC(O)[C@]1(C)[C@@H]2C[C@@H](O)[C@]1(C)[C@@H]3C(=O)C(O)[C@@]2(C)[C@H](c3ccoc3)C[C@H]3O[C@@]312` (stereo partly specified), the IC50 with SK-OV-3 came out at 470 nM; with SK-MEL-2, 19 nM; with P388 it was 3.8 nM; in the assay with A549 it was 75 nM; in the assay with XF498, 38 nM; in the assay on HCT-15 it was 150 nM.

`CC(=O)O[C@H]1C=C2C(=O)C3=C(C)C(=O)O[C@@H]3C[C@H]2[C@]2(C)CCCC(C)(C)[C@@H]12`: the IC50 in the assay on MCF7 [4] was found to be 130 nM; in the assay on UACC-62 it was 80 nM.

Take `CC1(C)OC(=O)C=C[C@]2(C)[C@H]3CC[C@@](C)([C@@H](O[C@H]4O[C@H](CO)[C@@H](O)[C@H](O)[C@H]4O)c4ccoc4)[C@@]4(O[C@@H]4C(=O)O)[C@]3(C)C(=O)C[C@@H]12`: the IC50 stood at 10000 nM in the assay on MDA-MB-435, 3200 nM with MCF7 [5] and 60000 nM in the assay with SW480.

Consider `CC(=O)OC1C(=O)[C@@H]2[C@@]34COC(O)[C@@](C)([C@H](OC(C)=O)C[C@@H]3O)[C@@H]4C[C@@H](O)[C@@]2(C)[C@@]23O[C@@H]2C[C@@H](c2ccoc2)[C@]13C` (stereo partly specified), for which the IC50 with SK-OV-3 was 35 nM; in the assay with SK-MEL-2 it was 1.2 nM; in the assay on A549 it was 17 nM; in the assay with XF498 it was 12 nM; in the assay with HCT-15 it was 70 nM.

In the assay on PANC-1, `CC(C)[C@]12O[C@H]1[C@@H]1O[C@]13[C@]1(O[C@H]1C[C@H]1C4=C(CC[C@@]13C)C(=O)OC4)[C@@H]2OCOP(=O)(O)O` [MINNELIDE] gave an IC50 of 200 nM.

In general, IC50 refers to the concentration that gives 50% inhibition. Read a low IC50 as higher potency.

Values taken from ChEMBL document CHEMBL4706632, “Development of Potential Antitumor Agents from the Scaffolds of Plant-Derived Terpenoid Lactones” (J Med Chem, 2020).
